Assay results reported in paper PMC10705530, “Lactate Dehydrogenase Gene Family in Spirometra mansoni (Cestoda: Diphyllobothriidea)—Phylogenetic Patterns and Molecular Characteristics” (Animals : an Open Access Journal from MDPI, 2023).
Blank lines part the entries; values can stand above or below the molecule they belong to.

Experiments:
[1] = biological target: T1, rSmLDH (SmLDH1, lactate dehydrogenase) (Spirometra erinaceieuropaei, UniProt E3SW74); test: LDH activity at […] nm, Lineweaver-Burk Ki (lactate oxidation; reduction Ki […], IC50 […]); format: biochemical
T1 construct: gene LDH; recombinant SmLDH1 (GenBank ADK62519.1, 338 aa), pQE-80L, E. coli BL21
T1 sequence (E3SW74 1-338): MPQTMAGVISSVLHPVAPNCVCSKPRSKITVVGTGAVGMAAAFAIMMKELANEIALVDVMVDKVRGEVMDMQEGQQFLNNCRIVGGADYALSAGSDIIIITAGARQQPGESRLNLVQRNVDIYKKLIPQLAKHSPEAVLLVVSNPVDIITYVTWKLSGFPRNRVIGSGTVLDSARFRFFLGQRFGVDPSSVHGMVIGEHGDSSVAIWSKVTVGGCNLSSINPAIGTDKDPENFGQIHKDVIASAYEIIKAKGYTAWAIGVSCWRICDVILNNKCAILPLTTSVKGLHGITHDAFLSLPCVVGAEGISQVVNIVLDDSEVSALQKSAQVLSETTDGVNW

[2] = biological target: T1, rSmLDH (SmLDH1, lactate dehydrogenase); test: LDH activity at […] nm, Lineweaver-Burk Ki (lactate oxidation; reduction Ki […]); format: biochemical
[3] = biological target: T1, rSmLDH (SmLDH1, lactate dehydrogenase); test: as above; format: biochemical; remark: listed apart in the source
[4] = biological target: T1, rSmLDH (SmLDH1, lactate dehydrogenase); test: LDH activity at […] nm, Lineweaver-Burk Ki (pyruvate reduction; oxidation Ki […]); format: biochemical
[5] = substrate: CC(=O)C(=O)O; test: enzyme kinetics, Km by Lineweaver-Burk plot; format: biochemical, Spirometra erinaceieuropaei; conditions: NADH key catalytic sites […] R, […] D and […] H (model)
[6] = substrate: CC(O)C(=O)O; test: enzyme kinetics, Km by Lineweaver-Burk plot; format: biochemical, Spirometra erinaceieuropaei; conditions: NAD+
[7] = substrate: NC(=O)C1=CN([C@@H]2O[C@H](COP(=O)(O)OP(=O)(O)OC[C@H]3O[C@@H](n4cnc5c(N)ncnc54)[C@H](O)[C@@H]3O)[C@@H](O)[C@H]2O)C=CC1; test: enzyme kinetics, Km by Lineweaver-Burk plot; format: biochemical, Spirometra erinaceieuropaei; conditions: varied: cofactor
[8] = substrate: NC(=O)c1ccc[n+]([C@@H]2O[C@H](COP(=O)([O-])OP(=O)(O)OC[C@H]3O[C@@H](n4cnc5c(N)ncnc54)[C@H](O)[C@@H]3O)[C@@H](O)[C@H]2O)c1; test: enzyme kinetics, Km by Lineweaver-Burk plot; format: biochemical, Spirometra erinaceieuropaei; conditions: varied: cofactor

Molecule: Cc1cc2c(C(C)C)c(O)c(O)c(C=O)c2c(O)c1-c1c(C)cc2c(C(C)C)c(O)c(O)c(C=O)c2c1O [Gsp, Gossypol]
Ki [1]: 41.7 µM

Molecule: O=C(O)c1cccnc1 [Niacin, Nicotinic Acid]
Ki [2]: 2090 µM

Ki [3]: 47.1 µM
Molecule: O=C(O)C(=O)O [Oxalate]

Ki [4]: 89.4 µM
Molecule: NC(=S)c1cccnc1 [Thio, Thionicotinamide]

B1: rSmLDH (SmLDH1, lactate dehydrogenase) (Spirometra erinaceieuropaei) (protein)
chain: MPQTMAGVISSVLHPVAPNCVCSKPRSKITVVGTGAVGMAAAFAIMMKELANEIALVDVMVDKVRGEVMDMQEGQQFLNNCRIVGGADYALSAGSDIIIITAGARQQPGESRLNLVQRNVDIYKKLIPQLAKHSPEAVLLVVSNPVDIITYVTWKLSGFPRNRVIGSGTVLDSARFRFFLGQRFGVDPSSVHGMVIGEHGDSSVAIWSKVTVGGCNLSSINPAIGTDKDPENFGQIHKDVIASAYEIIKAKGYTAWAIGVSCWRICDVILNNKCAILPLTTSVKGLHGITHDAFLSLPCVVGAEGISQVVNIVLDDSEVSALQKSAQVLSETTDGVNW
notes: recombinant SmLDH1 (GenBank ADK62519.1, 338 aa), pQE-80L, E. coli BL21
Km [5]: 4430 µM | Km [6]: 75190 µM | Km [7]: 490 µM | Km [8]: 480 µM
